Laboratory results from the Kinase Knowledgebase extract (Sharma et al. 2016).

Target: MAPK14 (human) (UniProt Q16539)
Assay: Inhibition of LPS Stimulated TNF Production by U937 Cells
Settings: not given

Chain of MAPK14 (human) (Q16539 whole entry, looked up): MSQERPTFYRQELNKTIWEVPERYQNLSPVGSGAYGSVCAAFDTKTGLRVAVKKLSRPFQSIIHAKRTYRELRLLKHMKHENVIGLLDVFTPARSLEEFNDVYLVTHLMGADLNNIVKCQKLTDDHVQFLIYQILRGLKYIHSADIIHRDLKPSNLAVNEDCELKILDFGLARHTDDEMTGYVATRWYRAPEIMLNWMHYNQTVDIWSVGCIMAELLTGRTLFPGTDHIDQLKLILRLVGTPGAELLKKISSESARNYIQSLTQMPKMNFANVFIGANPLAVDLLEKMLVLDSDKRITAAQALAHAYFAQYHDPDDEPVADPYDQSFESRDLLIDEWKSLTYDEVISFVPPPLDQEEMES

Structure (SMILES) | IC50 [nM]
CC[C@H](C)CNc1cc(-c2c[nH]nc2-c2ccc(Cl)cc2)ccn1 | 33.7
C[C@@H](NC(=O)c1ccccc1C(F)(F)F)c1[nH]nc(-c2ccc(F)cc2)c1-c1ccncc1 | 640
O=S(=O)(NCCCc1[nH]nc(-c2ccc(F)cc2)c1-c1ccncc1)c1ccccc1Br | 480
COC(=O)c1ccccc1S(=O)(=O)NCc1[nH]nc(-c2ccc(F)cc2)c1-c1ccncc1 | 4850
COC(=O)CNc1n[nH]c(-c2ccc(F)cc2)c1-c1ccncc1 | > 10000
COc1ccc(CC(=O)N[C@H](Cc2ccccc2)c2[nH]nc(-c3ccc(F)cc3)c2-c2ccncc2)cc1 | > 1000
CNC(=O)CC[C@H](NC(=O)c1cccc(Br)c1)c1[nH]nc(-c2ccc(F)cc2)c1-c1ccncc1 | > 1000
O=C(NCCCc1[nH]nc(-c2ccc(F)cc2)c1-c1ccncc1)NCCc1c[nH]cn1 | > 1000
CC(=O)OC(C)(C)C(=O)N[C@H](Cc1ccccc1)c1[nH]nc(-c2ccc(F)cc2)c1-c1ccncc1 | > 1000
OCCn1cc(-c2ccncc2)c(-c2ccc(F)cc2)n1 | 198
O=C(NCc1[nH]nc(-c2ccc(F)cc2)c1-c1ccncc1)c1ccc(F)c(F)c1F | 3270
c1cc(-c2c[nH]nc2-c2ccc3c(c2)OCO3)ccn1 | 417
Cc1ccc(-c2n[nH]c(C)c2-c2ccncc2)cc1 | 274
CCOC(=O)N[C@H](C)c1[nH]nc(-c2ccc(F)cc2)c1-c1ccncc1 | 740
Cc1cccc(-c2n[nH]cc2-c2ccnc(C)c2)c1 | 301
Fc1ccc(-c2[nH]nc(Nc3ccccc3)c2-c2ccncc2)cc1 | 1090
CCc1n[nH]c(-c2ccccc2)c1-c1ccncc1 | 243
Cn1cc(-c2ccncc2)c(-c2cccc(F)c2)n1 | 462
C[C@@H](NS(C)(=O)=O)c1[nH]nc(-c2ccc(F)cc2)c1-c1ccncc1 | 440
CNC(=O)N[C@H](Cc1ccccc1)c1[nH]nc(-c2ccc(F)cc2)c1-c1ccncc1 | > 1000
CN(C(=O)N[C@@H](Cc1ccccc1)c1[nH]nc(-c2ccc(F)cc2)c1-c1ccncc1)c1ccccc1 | < 1000
O=C(N[C@H](Cc1ccccc1)c1[nH]nc(-c2ccc(F)cc2)c1-c1ccncc1)c1ccc(F)c(F)c1F | > 1000
O=C(NCCCc1[nH]nc(-c2ccc(F)cc2)c1-c1ccncc1)NCCCn1ccnc1 | > 1000

Same assay, conditions: concentration not given here

Structure (SMILES) | inhibition [%]
C[C@@H](NC(=O)c1ccc(C(F)(F)F)cc1F)c1[nH]nc(-c2ccc(F)cc2)c1-c1ccncc1 | 48
CC1(C)[C@H]2CC[C@@]1(CS(=O)(=O)NCc1[nH]nc(-c3ccc(F)cc3)c1-c1ccncc1)C(=O)C2 | 20
C[C@H](NC(=O)N[C@H](C)c1ccccc1)c1[nH]nc(-c2ccc(F)cc2)c1-c1ccncc1 | 41
COc1ccc(NC(=O)NCc2[nH]nc(-c3ccc(F)cc3)c2-c2ccncc2)cc1 | 31
O=C(NCc1[nH]nc(-c2ccc(F)cc2)c1-c1ccncc1)C1CCCC1 | 13
C[C@H](NC(=O)c1ccc(F)c(F)c1)c1[nH]nc(-c2ccc(F)cc2)c1-c1ccncc1 | 52
O=S(=O)(NCc1[nH]nc(-c2ccc(F)cc2)c1-c1ccncc1)c1ccc(Cl)cc1 | 37
COc1cccc(CC(=O)N[C@@H](C)c2[nH]nc(-c3ccc(F)cc3)c2-c2ccncc2)c1 | 14
CNC(=O)CC[C@H](NS(=O)(=O)c1ccccc1F)c1[nH]nc(-c2ccc(F)cc2)c1-c1ccncc1 | 1
C[C@H](NS(=O)(=O)c1ccc(Cl)c(Cl)c1)c1[nH]nc(-c2ccc(F)cc2)c1-c1ccncc1 | 90
Cc1noc(C)c1C(=O)NCc1[nH]nc(-c2ccc(F)cc2)c1-c1ccncc1 | 28
C[C@@H](NS(=O)(=O)C[C@@]12CC[C@H](CC1=O)C2(C)C)c1[nH]nc(-c2ccc(F)cc2)c1-c1ccncc1 | 61
O=S(=O)(NCCCc1[nH]nc(-c2ccc(F)cc2)c1-c1ccncc1)c1cccc(C(F)(F)F)c1 | 11
Cc1cccc(S(=O)(=O)N2CCC(c3[nH]nc(-c4ccc(F)cc4)c3-c3ccncc3)CC2)c1 | 1
O=S(=O)(NCc1[nH]nc(-c2ccc(F)cc2)c1-c1ccncc1)c1ccccc1Cl | 70
C[C@H](NS(=O)(=O)c1cccc2cnccc12)c1[nH]nc(-c2ccc(F)cc2)c1-c1ccncc1 | 75
COc1ccccc1CCNC(=O)Cn1nc(-c2ccc(F)cc2)c(-c2ccncc2)c1C | 36
O=C(N[C@H](Cc1ccccc1)c1[nH]nc(-c2ccc(F)cc2)c1-c1ccncc1)[C@H]1CCCN1 | 2
C[C@@H](NS(=O)(=O)c1cccc2nonc12)c1[nH]nc(-c2ccc(F)cc2)c1-c1ccncc1 | 96
O=C(NCc1[nH]nc(-c2ccc(F)cc2)c1-c1ccncc1)c1ccc(Cl)nc1 | 15
C[C@H](NC(=O)c1cccc(F)c1F)c1[nH]nc(-c2ccc(F)cc2)c1-c1ccncc1 | 32
CNC(=O)NCc1[nH]nc(-c2ccc(F)cc2)c1-c1ccncc1 | 30
C[C@H](NC(=O)c1cc(F)c(F)cc1F)c1[nH]nc(-c2ccc(F)cc2)c1-c1ccncc1 | 43

Structure (SMILES) | inhibition [%]
C[C@H](NC(=O)[C@H]1CCCN1)c1[nH]nc(-c2ccc(F)cc2)c1-c1ccncc1 | 20
O=S(=O)(NCCCc1[nH]nc(-c2ccc(F)cc2)c1-c1ccncc1)c1cccc(Cl)c1Cl | 18
C[C@H](NC(=O)c1cccc(Br)c1)c1[nH]nc(-c2ccc(F)cc2)c1-c1ccncc1 | 21
Cc1cccc(C)c1NC(=O)N[C@H](C)c1[nH]nc(-c2ccc(F)cc2)c1-c1ccncc1 | 50
CNC(=O)CC[C@H](NC(=O)C1CC1)c1[nH]nc(-c2ccc(F)cc2)c1-c1ccncc1 | 28
Cn1cnc(S(=O)(=O)N2CCC(c3[nH]nc(-c4ccc(F)cc4)c3-c3ccncc3)CC2)c1 | 28
C[C@@H](NC(=O)c1ccno1)c1[nH]nc(-c2ccc(F)cc2)c1-c1ccncc1 | 27
C[C@@H](NC(=O)c1ccncc1)c1[nH]nc(-c2ccc(F)cc2)c1-c1ccncc1 | 36
Cc1ccc(C)c(S(=O)(=O)N[C@H](C)c2[nH]nc(-c3ccc(F)cc3)c2-c2ccncc2)c1 | 93
Cc1cccc(C)c1NC(=O)N[C@@H](C)c1[nH]nc(-c2ccc(F)cc2)c1-c1ccncc1 | 42
C[C@H](NC(=O)c1ccccc1F)c1[nH]nc(-c2ccc(F)cc2)c1-c1ccncc1 | 31
C[C@@H](NS(=O)(=O)c1cccc(Cl)c1Cl)c1[nH]nc(-c2ccc(F)cc2)c1-c1ccncc1 | 83
O=S(=O)(NCc1[nH]nc(-c2ccc(F)cc2)c1-c1ccncc1)c1cccc(C(F)(F)F)c1 | 75
Cc1c(Cl)cccc1S(=O)(=O)NCCc1[nH]nc(-c2ccc(F)cc2)c1-c1ccncc1 | 29
C[C@H](NC(=O)c1ccc(F)cc1C(F)(F)F)c1[nH]nc(-c2ccc(F)cc2)c1-c1ccncc1 | 58
NC(=O)NCc1[nH]nc(-c2ccc(F)cc2)c1-c1ccncc1 | 50
CSc1cccc(NC(=O)NCc2[nH]nc(-c3ccc(F)cc3)c2-c2ccncc2)c1 | 12
COc1ccc(OC)c(S(=O)(=O)N[C@H](C)c2[nH]nc(-c3ccc(F)cc3)c2-c2ccncc2)c1 | 81
C[C@@H](NC(=O)c1cc(F)ccc1F)c1[nH]nc(-c2ccc(F)cc2)c1-c1ccncc1 | 67
COC(=O)CCCCCCC(=O)NCc1[nH]nc(-c2ccc(F)cc2)c1-c1ccncc1 | 9
CCCC(CCC)C(=O)NCc1[nH]nc(-c2ccc(F)cc2)c1-c1ccncc1 | 29
Cc1ccc(S(C)(=O)=O)cc1S(=O)(=O)N[C@@H](C)c1[nH]nc(-c2ccc(F)cc2)c1-c1ccncc1 | 78
C[C@H](NC(=O)c1ccc(Cl)cc1Cl)c1[nH]nc(-c2ccc(F)cc2)c1-c1ccncc1 | 28

Structure (SMILES) | inhibition [%]
O=C(NCc1[nH]nc(-c2ccc(F)cc2)c1-c1ccncc1)c1ccc([N+](=O)[O-])o1 | 100
C[C@@H](NC(=O)c1c(F)cccc1F)c1[nH]nc(-c2ccc(F)cc2)c1-c1ccncc1 | 83
C[C@H](NC(=O)N[C@@H](C)c1[nH]nc(-c2ccc(F)cc2)c1-c1ccncc1)c1ccccc1 | 29
C[C@@H](NC(=O)Cc1cccs1)c1[nH]nc(-c2ccc(F)cc2)c1-c1ccncc1 | 33
Cc1c(C)c(S(=O)(=O)N[C@H](C)c2[nH]nc(-c3ccc(F)cc3)c2-c2ccncc2)c(C)c2c1OC(C)(C)CC2 | 68
C[C@H](NC(=O)c1cccc(C(F)(F)F)c1F)c1[nH]nc(-c2ccc(F)cc2)c1-c1ccncc1 | 15
C[C@H](NS(=O)(=O)c1cc(Cl)cc(Cl)c1)c1[nH]nc(-c2ccc(F)cc2)c1-c1ccncc1 | 65
C[C@H](NS(=O)(=O)c1cccc(Cl)c1)c1[nH]nc(-c2ccc(F)cc2)c1-c1ccncc1 | 93
O=S(=O)(NCCc1[nH]nc(-c2ccc(F)cc2)c1-c1ccncc1)c1cc(Cl)cc(Cl)c1O | 50
Cc1c(C)c(S(=O)(=O)N[C@@H](C)c2[nH]nc(-c3ccc(F)cc3)c2-c2ccncc2)c(C)c2c1OC(C)(C)CC2 | 87
O=C(NCCc1[nH]nc(-c2ccc(F)cc2)c1-c1ccncc1)c1cnc2ccccc2n1 | 20
O=S(=O)(NCc1[nH]nc(-c2ccc(F)cc2)c1-c1ccncc1)c1c(Cl)cccc1Cl | 43
C[C@H](NS(=O)(=O)c1cccc(C(F)(F)F)c1)c1[nH]nc(-c2ccc(F)cc2)c1-c1ccncc1 | 83
O=C(NCc1[nH]nc(-c2ccc(F)cc2)c1-c1ccncc1)c1sc2ccccc2c1Cl | 18
Cc1ccccc1C(=O)NCCc1[nH]nc(-c2ccc(F)cc2)c1-c1ccncc1 | 9
COc1ccc(OC)c(S(=O)(=O)N[C@@H](C)c2[nH]nc(-c3ccc(F)cc3)c2-c2ccncc2)c1 | 40
CS(=O)(=O)N[C@H](Cc1ccccc1)c1[nH]nc(-c2ccc(F)cc2)c1-c1ccncc1 | 17
CSCCC(=O)NCc1[nH]nc(-c2ccc(F)cc2)c1-c1ccncc1 | 13
O=C(NCc1[nH]nc(-c2ccc(F)cc2)c1-c1ccncc1)c1c(F)ccc(F)c1F | 36
C[C@@H](NS(=O)(=O)c1ccc(CNC(=O)c2ccccc2)s1)c1[nH]nc(-c2ccc(F)cc2)c1-c1ccncc1 | 88
CC(C)NC(=O)N[C@@H](C)c1[nH]nc(-c2ccc(F)cc2)c1-c1ccncc1 | 47
